Data from patent US20170280720A1, “ARGININE […] INHIBITORS AND USES THEREOF” (EPIZYME, INC., priority 2014, published 2017).

Biological target: T1, human PRMT1 (Homo sapiens, UniProt Q99873)
T1 construct: GST-tagged PRMT1; made in house; host or cells: High Five insect cells (baculovirus, pFastBacI)
Experiment: PRMT1 biochemical assay (3H-SAM Flashplate, peptide substrate)
Settings: read-out: PRMT1_ IC50
From the text: S-adenosylmethionine (SAM), S-adenosylhomocysteine (SAH), bicine, Tween20, dimethylsulfoxide (DMSO), bovine skin gelatin (BSG), and Tris(2-carboxyethyl)phosphine hydrochloride solution (TCEP) were purchased from Sigma-Aldrich at the highest level of purity possible. ^3H-SAM was purchase from American Radiolabeled Chemicals with a specific activity of 80 Ci/mmol. 384-well streptavidin Flashplates were purchased from PerkinElmer.
Peptide representative of human histone H4 residues 36-50 was synthesized with an N-terminal linker-affinity tag motif and a C-terminal amide cap by 21st Century Biochemicals. The peptide was purified by high-performance liquid chromatography (HPLC) to greater than 95% purity and confirmed by liquid chromatography mass spectrometry (LC-MS). The sequence was Biot-Ahx-[…]-amide (SEQ ID NO.: 1).
Full-length human PRMT1 isoform 1 (NM_001536.5) transcript clone was amplified from an HEK 293 cDNA library, incorporating flanking 5′ sequence encoding a FLAG tag ([…]) (SEQ ID NO.: 2) fused directly to Met 1 of PRMT1. The amplified gene was subcloned into pFastBacI (Life Technologies) modified to encode an N-terminal GST tag and a TEV cleavage sequence ([…] […] […] […] QGGNS)(SEQ ID NO.: 3) fused to Asp of the Flag tag of PRMT1.
Recombinant baculovirus were generated according to Bac-to-Bac kit instructions (Life Technologies). Protein over-expression was accomplished by infecting exponentially growing High Five insect cell culture at 1.5×10^6 cell/ml with 1:100 ratio of virus. Infections were carried out at 27° C. for 48 hours, harvested by centrifugation, and stored at −80° C. for purification.
GST-tagged PRMT1 was eluted with 50 mM Tris, 2 mM glutathione, pH 7.8, dialysed in buffer A and concentrated to 1 mg/mL. The purity of recovered protein was 73%. Reference: Wasilko, D. J. and S. E. Lee: “TIPS: titerless infected-cells preservation and scale-up” Bioprocess J., 5 (2006), pp. 29-32.
General Procedure for PRMT1 Enzyme Assays on Peptide Substrates.
The assays were all performed in a buffer consisting of 20 mM Bicine (pH=7.6), 1 mM TCEP, 0.005% BSG, and 0.002% Tween 20, prepared on the day of use. Compounds in 100% DMSO (1 ul) were spotted into a polypropylene 384-well V-bottom plates (Greiner) using a Platemate Plus outfitted with a 384-channel head (Thermo Scientific). DMSO (1 ul) was added to Columns 11, 12, 23, 24, rows A-H for the maximum signal control and 1 ul of SAH, a known product and inhibitor of PRMT1, was added to columns 11, 12, 23, 24, rows I-P for the minimum signal control. A cocktail (40 ul) containing the PRMT1 enzyme was added by Multidrop Combi (Thermo-Fisher). The compounds were allowed to incubate with PRMT1 for 30 min at room temperature, then a cocktail (10 ul) containing SAM and peptide was added to initiate the reaction (final volume=51 ul). The final concentrations of the components were as follows: PRMT1 was 0.5 nM, ^3H-SAM was 200 nM, non-radiolabeled SAM was 1.5 uM, peptide was 20 nM, SAH in the minimum signal control wells was 1 mM, and the DMSO concentration was 2%. The assays were stopped by the addition of non-radiolabeled SAM (10 ul) to a final concentration of 300 uM, which dilutes the ^3H-SAM to a level where its incorporation into the peptide substrate is no longer detectable. 50 ul of the reaction in the 384-well polypropylene plate was then transferred to a 384-well Flashplate and the biotinylated peptides were allowed to bind to the streptavidin surface for at least 1 hour before being washed once with 0.1% Tween20 in a Biotek ELx405 plate washer. The plates were then read in a PerkinElmer TopCount plate reader to measure the quantity of ^3H-labeled peptide bound to the Flashplate surface, measured as disintegrations per minute (dpm) or alternatively, referred to as counts per minute (cpm).
Where dpm=disintegrations per minute, cmpd=signal in assay well, and min and max are the respective minimum and maximum signal controls. […]

T1 sequence (Q99873 with tags, fused parts or gaps): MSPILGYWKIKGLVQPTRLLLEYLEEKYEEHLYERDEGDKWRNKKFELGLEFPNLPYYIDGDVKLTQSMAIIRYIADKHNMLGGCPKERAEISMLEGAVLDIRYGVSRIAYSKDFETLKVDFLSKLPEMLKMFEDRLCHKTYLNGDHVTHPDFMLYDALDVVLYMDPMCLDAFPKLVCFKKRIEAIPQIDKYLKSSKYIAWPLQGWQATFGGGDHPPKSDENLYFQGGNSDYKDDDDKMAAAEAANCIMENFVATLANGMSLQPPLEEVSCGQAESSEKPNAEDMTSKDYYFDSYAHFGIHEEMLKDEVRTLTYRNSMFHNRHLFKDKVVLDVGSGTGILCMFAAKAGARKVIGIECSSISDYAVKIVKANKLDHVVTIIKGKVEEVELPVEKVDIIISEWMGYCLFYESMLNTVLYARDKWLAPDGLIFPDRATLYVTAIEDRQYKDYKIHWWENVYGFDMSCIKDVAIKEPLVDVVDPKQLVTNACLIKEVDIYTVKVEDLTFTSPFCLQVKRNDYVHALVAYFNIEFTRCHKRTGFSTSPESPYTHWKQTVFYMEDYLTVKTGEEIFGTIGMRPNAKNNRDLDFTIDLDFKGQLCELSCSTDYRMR

SMILES	IC50 [nM]
COc1cccc(Cn2cnc3ccc(-c4ccc(CN(C)CCN)cc4)cc32)c1 [Compound 8]	47
CNCCN(C)Cc1cccc(-c2nc(NCc3ccncc3)c3cnn(C4CC4)c3n2)c1 [Compound 69]	282
CNCCN(C)Cc1cccc(-c2cc(C(=O)NCc3ccccn3)c3cnn(C(C)C)c3n2)c1 [Compound 98]	456
Cc1c(C(=O)NCc2ccccc2)cc(-c2ccc(CN(C)CCN)cc2)c2cn[nH]c12 [Compound 7]	45.2
CNCCN(C)Cc1cccc(-c2cnc3c(c2)c(C2CC2)nn3CC2CCOCC2)c1 [Compound 4]	34.8
CNCCN(C)Cc1cccc(-c2cc(C(=O)NCCCCC(=O)NCC3CCOCC3)c3cnn(C(C)C)c3n2)c1 [Compound 118]	668
COc1ccccc1-c1nc2ccc(-c3ccc(CNCCN)cc3)cc2[nH]1 [Compound 115]	629
CNCCN(C)Cc1cccc(-c2ccc3cnn(C(C)C)c3c2)c1 [Compound 100]	477
COc1cccc(CCn2cnc3ccc(-c4ccc(CNCCN)cc4)cc32)c1 [Compound 94]	446
CC(C)n1ncc2c(C(=O)N(C)[C@@H](C)c3ccccc3)cc(-c3cccc(CN(C)CCN)c3)cc21 [Compound 3]	26.7
Cc1ccccc1Cn1cnc2ccc(-c3ccc(CNCCN)cc3)cc21 [Compound 82]	375
NCCNCc1ccc(-c2ccc3ncn(CC4CCCNC4)c3c2)cc1 (stereo not drawn) [Compound 81]	359
CNCCN(C)Cc1cccc(-c2cc(C(=O)NC3CCOCC3)c3cnn(C4CC4)c3n2)c1 [Compound 87]	412
CNCCN(C)Cc1cccc(-c2nc(NC3CC3)c3cnn(C4CC4)c3n2)c1 [Compound 114]	617
CCS(=O)(=O)Nc1cc(-c2cccc(CN(C)CCN)c2)nc2c1cnn2C(C)C [Compound 111]	585
CNCCN(C)Cc1cccc(-c2nc(NCc3cnn(C)c3C)c3cnn(C4CC4)c3n2)c1 [Compound 57]	238
CNCCN(C)Cc1cccc(-c2cc(C(=O)NCc3cc(C)nn3C)c3cnn(C(C)C)c3n2)c1 [Compound 120]	718
CNCCN(C)Cc1cccc(-c2cc(C(=O)NCCCCCC(=O)NCC3CCOCC3)c3cnn(C(C)C)c3n2)c1 [Compound 112]	588
CC(C)NC(=O)Nc1cc(-c2cccc(CN(C)CCN)c2)nc2c1cnn2C(C)C [Compound 86]	397
CN(CCN)Cc1cccc(-c2nc(NCc3cn4ccsc4n3)c3cnn(C4CC4)c3n2)c1 [Compound 5]	36.9

SMILES	IC50 [nM]
CC(C)n1ncc2c(NC(=O)N(C)C)cc(-c3cccc(CN(C)CCN)c3)nc21 [Compound 116]	640
Cc1c(CNc2nc(-c3cccc(CN(C)CCN)c3)nc3c2cnn3C2CC2)cnn1C [Compound 52]	226
CNCCN(C)Cc1cccc(-c2cc(C(=O)NCCCCC(=O)NCc3ccn(C)n3)c3cnn(C(C)C)c3n2)c1 [Compound 122]	725
CNCCN(C)Cc1cccc(-c2cc(C(=O)NCCC(=O)NCc3ccn(C)n3)c3cnn(C(C)C)c3n2)c1 [Compound 83]	378
CNCCN(C)Cc1cccc(-c2nc(NCc3cccnc3)c3cnn(C4CC4)c3n2)c1 [Compound 63]	262
CN(CCN)Cc1cccc(-c2nc(NCc3ccncc3)c3cnn(C4CC4)c3n2)c1 [Compound 66]	274
COc1ccccc1Cn1cnc2ccc(-c3ccc(CNCCN)cc3)cc21 [Compound 80]	345
CN(CCN)Cc1cccc(-c2nc(N(C)C3CCOCC3)c3cnn(C4CC4)c3n2)c1 [Compound 119]	714
CNCCN(C)Cc1cccc(-c2cc(C(=O)NCCCCCC(=O)NCc3ccn(C)n3)c3cnn(C(C)C)c3n2)c1 [Compound 117]	642
CNCCN(C)Cc1cccc(-c2cc(C(=O)NCCCC(=O)NCc3ccn(C)n3)c3cnn(C(C)C)c3n2)c1 [Compound 88]	413
CC(C)n1ncc2c(C(=O)NCc3ccccc3Cl)cc(-c3cccc(CN(C)CCN)c3)nc21 [Compound 54]	231
CC(C)n1cc2c(Cl)cc(-c3cccc(CN(C)CCN)c3)nc2n1 [Compound 59]	244
CC(C)n1ncc2c(C(=O)N[C@@H](C)c3ccccc3)cc(-c3cccc(CNCCN)c3)cc21 [Compound 125]	783
CC(C)n1ncc2c(N3CCOCC3)cc(-c3cccc(CN(C)CCN)c3)nc21 [Compound 61, N1-(3-(1-isopropyl-4-morpholino-1H-pyrazolo[3,4-b]pyridin-6-yl)benzyl)-N1-methylethane-1,2-diamine]	249
CNCCN(C)Cc1cccc(-c2nc(NCc3cn4ccsc4n3)c3cnn(C4CC4)c3n2)c1 [Compound 6]	36.9
CC(C)n1ncc2c(NS(=O)(=O)N(C)C)cc(-c3cccc(CN(C)CCN)c3)nc21 [Compound 107]	562
Cc1ccc(Cn2cnc3ccc(-c4ccc(CNCCN)cc4)cc32)cc1 [Compound 97]	452
CN(CCN)Cc1cccc(-c2nc(NC3CC3)c3cnn(C4CC4)c3n2)c1 [Compound 96]	451
CNCCN(C)Cc1cccc(-c2ccc3cnn(C(C)C)c3n2)c1 [Compound 73]	306

Further lines, results first:

IC50 [nM]	SMILES
317	CNCCN(C)Cc1cccc(-c2cc(NC3CCOCC3)c3cnn(C(C)C)c3n2)c1 [Compound 76]
223	CNCCN(C)Cc1cccc(-c2cc(N3CCC(C(F)(F)F)CC3)c3cnn(C(C)C)c3n2)c1 [Compound 50]
228	CCOc1cc(-c2cccc(CN(C)CCNC)c2)nc2c1cnn2C(C)C [Compound 53]
309	CNCCN(C)Cc1cccc(-c2cc(C#N)c3cnn(C(C)C)c3n2)c1 [Compound 74]
212	CCC(O)c1cc(-c2cccc(CN(C)CCNC)c2)nc2c1cnn2C(C)C (stereo not drawn) [Compound 48]
492	CNCCN(C)Cc1cccc(-c2cc(OC3CCOC3)c3cnn(C(C)C)c3n2)c1 (stereo not drawn) [Compound 102]
236	CNCCN(C)Cc1cccc(-c2cc(N3CCCC(C#N)C3)c3cnn(C(C)C)c3n2)c1 (stereo not drawn) [Compound 55]
303	CCNc1cc(-c2cccc(CN(C)CCNC)c2)nc2c1cnn2C(C)C [Compound 72]
451	CNCCN(C)Cc1cccc(-c2cc(N(C)C3CC3)c3cnn(C(C)C)c3n2)c1 [Compound 95]
766	CNCCN(C)Cc1cccc(-c2cc(NC(=O)N(C)C)c3cnn(C(C)C)c3n2)c1 [Compound 123]
239	CNCCN(C)Cc1cccc(-c2cc(NC3COC3)c3cnn(C(C)C)c3n2)c1 [Compound 58]
391	CNCCN(C)Cc1cccc(-c2cc(NC(=O)NC(C)C)c3cnn(C(C)C)c3n2)c1 [Compound 85]
721	CNCCN(C)Cc1cccc(-c2cc(NC)c3cnn(C(C)C)c3n2)c1 [Compound 121]
433	CNCCN(C)Cc1cccc(-c2cc(N3CCC(C#N)CC3)c3cnn(C(C)C)c3n2)c1 [Compound 93]
517	CNCCN(C)Cc1cccc(-c2cc(N(C)C)c3cnn(C(C)C)c3n2)c1 [Compound 103]
548	CNCCN(C)Cc1cccc(-c2cc(C(=O)NCC3CCOCC3)c3cnn(C(C)C)c3n2)c1 [Compound 105]
488	CC(C)n1ncc2c(NC3CCOCC3)cc(-c3cccc(CN(C)CCN)c3)nc21 [Compound 101]
213	CNCCN(C)Cc1cccc(-c2cc(-c3cnn(C)c3)c3cnn(C(C)C)c3n2)c1 [Compound 49, N1-(3-(1-isopropyl-4-(1-methyl-1H-pyrazol-4-yl)-1H-pyrazolo[3,4-b]pyridin-6-yl)benzyl)-N1,N2-dimethylethane-1,2-diamine]
